Measured values from patent publication US7202049B2, “Mitogen-activated protein kinase p38-2 and methods of use therefor” (Signal Pharmaceuticals, Inc., priority 1996, dated 2007).

Test system: p38-2
Assay: Immune complex kinase assay of HA-tagged p38-2 from transiently transfected COS cells, GST-ATF2 substrate
Type: cell-based, human
Source text: An expression vector encoding epitope-tagged p38-2 (3×HA-p38-2-SRα3) was constructed by adding sequence encoding three copies of a 10 amino acid hemagglutinin (HA) epitope to the N-terminus of p38-2 and ligating the resulting cDNA into the expression vector SRα3. To investigate the pattern of regulation of p38-2, COS cells were transiently transfected with HA-p38-2-SRα3 (as described above) by the DEAE-Dextran method (Kawai and Nishizawa, Mol. Cell. Biol. 4:1172–1174, 1984).
Following treatment, cell lysates were prepared by solubilization in lysis buffer as described (Derijard et al., Cell 76:1025–1037, 1994), and protein concentration of lysates was determined by Bradford assay (Bradford, Ann Biochem. 72:248–254, 1976). Cell lysates were used in an immune complex kinase assay with GST-ATF2 substrate, prepared as previously described (Gupta et al., Science 267:389–39, 1995). The assay was generally performed as described previously (Derijard et al., Cell 76:1025–1037, 1994; Lin et al., Science 268:286–290, 1995) with minor modifications. The concentration of [γ-^32P]ATP was 50 nM, and 30 μg cell lysate was immunoprecipitated for 2 hours with the anti-HA antibody 12CA5 (Boehringer-Mannheim Corp., Indianapolis, Ind.) and then incubated with 1 μg of recombinant substrate.

Structure (SMILES)	increase in p38-2 activity (ATF2 phosphorylation)	induction of p38-2 (kinase activity, ATF2 phosphorylation) (COS cells transfected with HA-p38-2, anisomycin 50 ng/mL for 45 minutes)
[Cl-].[Na+] [NaCl]	No increase	
COc1ccc(C[C@H]2NC[C@H](O)[C@H]2OC(C)=O)cc1 [anisomycin]		strong induction
